Test results: patent publication US10799622B2, “Reducing post-operative adhesion formation with intraperitoneal glutamine” (AdeTherapeutics Inc., priority 2005, dated 2020)
Residues, ends and D or L forms follow the SMILES beside them.

Columns and labels:
[1] = test system: post-operative adhesion formation; assay: Modified cecal puncture abdominal surgery, histological assessment of post-operative adhesions (Example 1); assay type: in vivo, male Wistar rats; settings: for complications due to intraperitoneal use: 0.3-1.5 g/kg intraperitoneally; for reducing and/or preventing post-operative adhesions (including secondary adhesions): administered intra-peritoneally; for acute inflammatory response (macrophages and macrophage chemotactic proteins): days 3-7, vs saline and non-treatment surgical groups
Protocol: 70 plus male Wistar rats (over 350 g each) were assessed histologically on post-operative days 1,3,5,7,10, 30, and at about 6 weeks. The rats were randomly distributed based on the mode of treatment, type of sutures and presence or absence of hemorrhage during surgery. Initially, there were three surgery groups (alanyl-glutamine treatment, saline, no treatment) plus a control (no surgery).
The rats were anaesthetized with halothane/Ketamine. Open surgery involving a midline sub-umbilical incision and a modified cecal puncture with pulstring to prevent soilage after abdominal closure was done. The procedure involved some fecal extrusion, mimicking clinical scenarios of iatrogenic/traumatic perforations of the bowel. Alanyl-glutamine [Degussa; Coubevoie, France] […] (1.5 g/kg) was instilled into the peritoneal cavity from a syringe. The cecum, abdomen, and the skin were closed in layers using the same suture. Various absorbable (3/0 Vicryl™, 3/0 Monocryl™, 3/0 PDS™, 2/0 Maxon™) and non-absorbable sutures (3/0 Prolene™, 3/0 Ethibond™, 4/0 & 5/0 Surgilene™, 3/0 Novafil™) were used. The wound was infiltrated with local anesthetic. The animals were given sufficient chow to eat (20 g/day≈2 mmole/kg/day). The gastrointestinal tract and omentum were harvested from the stomach to the sigmoid colon and fixed in formaldehyde solution for evaluation.
The severity of adhesions was assessed histologically using standard Haematoxylin & Eosin and Masson trichrome stained slides. The latter helped delineate the degree of fibrosis and collagen deposition.
Semi-quantitative analysis was done by scoring the average number of milky spots per high-power-field (HPF). Quantitative statistical analysis was done using the T-test between the experimental groups. Milky spots are a marker for inflammation and adhesion formation.

[2] = test system: post-operative adhesion formation; assay: Surgery as in Example 1 with Marlex mesh inserted, Zuhlke adhesion score (Example 2); assay type: in vivo, rats; settings: day 90
Protocol: Previous studies show a high incidence of adhesion formation when surgical mesh is employed as a reinforcing material [6a, 6b]. We repeated trials as described in Example 1, inserting Marlex™ mesh during the procedure on the surgical groups.
Severity of adhesions was assessed at day 90 using the adhesion score of Zuhlke, et al.. This scoring procedure has been described in the literature for assessment of other potential treatments for adhesions. […] This differs from previous measurements of adhesions using polypropylene mesh which reported up to about 90% adhesion formation [6a].

[3] = test system: secondary adhesions; assay: Secondary adhesions after adhesiolysis in rats with mesh implants, Zuhlke score (Example 3); assay type: in vivo, Sprague-Dawley rats; settings: three weeks after adhesiolysis and installation, six months after initial surgery
Protocol: Adhesions tend to recur once in place. We examined the effect of alanyl-glutamine treatment on such secondary adhesions. The modified caecal perforation with pulstring closure procedure described in Example 1 was performed on 9 Sprague-Dawley rats. These were divided into 5 groups, each group receiving a different form of mesh (INTERCEED™; PROCEED™; BARD™ composite; prolene; and a mesh which was allowed to be “infected” by repeated re-opening of the wound). The surgical procedure with mesh implacement was performed without application of a glutamine source. Six months after initial surgery, a laparotomy was performed on each rat then adhesiolysis followed by installation of alanyl-glutamine.

[4] = test system: post-operative adhesion formation; assay: Modified cecal puncture abdominal surgery, histological assessment of post-operative adhesions (Example 1); assay type: in vivo, male Wistar rats; settings: 0.3 g/kg intraperitoneal

complications due to intraperitoneal use [1]	Compound	reducing and/or preventing post-operative adhesions (including secondary adhesions) ([1]; summary statement)	acute inflammatory response (macrophages and macrophage chemotactic proteins) [1]	effectiveness of dosage ([1]; 1.5 g/kg intraperitoneal)	histological appearance of the peritoneum (adhesion) ([1]; 10th post-operative day, intraperitoneal, vs untreated and saline treated surgical groups)	milky spots per 5 high power field (5HPF) in the peritoneum ([1]; controls 1 per 5HPF, untreated surgical group 6-7)	adhesions in all the suture groups (braided and monofilament, absorbable and non-absorbable) ([1]; intraperitoneal)	effect in adhesion prevention compared with L-glutamine ([1]; summary statement)	adhesion score of Zuhlke, et al. [2]	recurrence of adhesions (secondary adhesions), scored according to Zuhlke, et al. [3]	effectiveness of dosage [4]
did not observe complications	NC(=O)CC[C@H](N)C(=O)O [L-glutamine]	effective	reduction, but to a lesser extent								
did not observe complications	C[C@H](N)C(=O)N[C@@H](CCC(N)=O)C(=O)O [alanyl-glutamine] (H-Ala-Gln-OH)	effective	markedly reduced	effective	very minimal adhesion	the same as the controls	prevented adhesions	more pronounced	0-1	no secondary adhesions were seen	effective
